Target: T1, human PAH with the R408W mutation (Homo sapiens, UniProt P00439, R408W)
T1 construct: expressed in transfected cells
T1 sequence (P00439 1-452 R408W): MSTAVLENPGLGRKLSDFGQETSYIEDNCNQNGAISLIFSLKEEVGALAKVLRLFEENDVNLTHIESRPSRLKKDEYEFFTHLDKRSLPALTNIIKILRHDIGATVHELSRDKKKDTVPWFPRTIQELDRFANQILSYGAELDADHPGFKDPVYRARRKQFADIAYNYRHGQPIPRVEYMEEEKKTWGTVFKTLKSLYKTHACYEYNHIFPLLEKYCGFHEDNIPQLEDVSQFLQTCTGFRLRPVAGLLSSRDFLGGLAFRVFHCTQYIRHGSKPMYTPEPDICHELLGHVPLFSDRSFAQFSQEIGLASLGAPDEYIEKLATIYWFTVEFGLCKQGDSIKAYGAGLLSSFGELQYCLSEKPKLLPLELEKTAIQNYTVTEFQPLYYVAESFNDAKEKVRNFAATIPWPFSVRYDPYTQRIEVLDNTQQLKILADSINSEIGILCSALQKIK
Assay: Cell Based Phenylalanine Flux Assay
Design: scale not given here
Details: A375 cells expressing human R408W PAH; 24 hrs compound incubation; 13C-Tyrosine by LC-MS; average where tested multiple times; read-out: AC50

Molecule | AC50 [µM]
CNC(C)(C)c1nc(C(F)F)c(C(=O)N2CCc3[nH]cnc3[C@@H]2c2nc3c(F)cccc3s2)o1 [Example 2070, (R)-(4-(difluoromethyl)-2-(2-(methylamino)propan-2-yl)oxazol-5-yl)(4-(4-fluorobenzo[d]thiazol-2-yl)-6,7-dihydro-1H-imidazo[4,5-c]pyridin-5(4H)-yl)methanone] | < 0.5
O=C(N1CCc2[nH]cnc2[C@H]1c1nc2ccccc2s1)C1(c2cnco2)CC1 [Example 1629] | 0.5 to 1
O=C(c1nnc(-c2cnn(CC(F)(F)F)c2)o1)N1CCc2[nH]cnc2[C@H]1c1nc2ccccc2s1 [Example 1793, [(4S)-4-(1,3-benzothiazol-2-yl)-1,4,6,7-tetrahydroimidazo[4,5-c]pyridin-5-yl]-[5-[1-(2,2,2-trifluoroethyl)pyrazol-4-yl]-1,3,4-oxadiazol-2-yl]methanone] | < 0.5
CCn1ncnc1C(=O)N1CCc2[nH]cnc2[C@@H]1c1nc2c(F)cccc2s1 [Example 1960, (R)-(1-ethyl-1H-1,2,4-triazol-5-yl)(4-(4-fluorobenzo[d]thiazol-2-yl)-6,7-dihydro-1H-imidazo[4,5-c]pyridin-5(4H)-yl)methanone] | 1 to 5
O=C(c1nnc(-c2cnn(S(=O)(=O)C3CC3)c2)o1)N1CCc2[nH]cnc2[C@@H]1c1nc2ccccc2s1 [Example 1940, (R)-(4-(benzo[d]thiazol-2-yl)-6,7-dihydro-1H-imidazo[4,5-c]pyridin-5(4H)-yl)(5-(1-(cyclopropylsulfonyl)-1H-pyrazol-4-yl)-1,3,4-oxadiazol-2-yl)methanone] | 1 to 5
O=C(c1ocnc1C(F)(F)F)N1CCCc2[nH]cnc2[C@H]1c1nc2ccccc2s1 [Example 2131, (S)-(4-(benzo[d]thiazol-2-yl)-7,8-dihydroimidazo[4,5-c]azepin-5(1H,4H,6H)-yl)(4-(trifluoromethyl)oxazol-5-yl)methanone] | 0.5 to 1
O=C(c1oc(C2CC2)nc1C(F)(F)F)N1CCc2[nH]cnc2[C@@H]1c1nc2ccccc2s1 [Example 2164, (R)-(4-(benzo[d]thiazol-2-yl)-6,7-dihydro-1H-imidazo[4,5-c]pyridin-5(4H)-yl)(2-cyclopropyl-4-(trifluoromethyl)oxazol-5-yl)methanone] | < 0.5
Clc1cnc(CN2CCc3[nH]cnc3[C@H]2c2nc3ccccc3[nH]2)s1 [Example 980, (S)-2-((4-(1H-benzo[d]imidazol-2-yl)-6,7-dihydro-1H-imidazo[4,5-c]pyridin-5(4H)-yl)methyl)-5-chlorothiazole] | 0.5 to 1
C[C@@H](O)c1nc(C(F)F)c(C(=O)N2CCc3[nH]cnc3[C@@H]2c2nc3c(C(F)(F)F)cccc3s2)o1 [Example 2110, (4-(difluoromethyl)-2-((R)-1-hydroxyethyl)oxazol-5-yl)((R)-4-(4-(trifluoromethyl)benzo[d]thiazol-2-yl)-6,7-dihydro-1H-imidazo[4,5-c]pyridin-5(4H)-yl)methanone] | 1 to 5
Fc1ccc2nc([C@@H]3c4nc[nH]c4CCN3Cc3nccs3)[nH]c2c1 [Example 974, (S)-2-((4-(6-fluoro-1H-benzo[d]imidazol-2-yl)-6,7-dihydro-1H-imidazo[4,5-c]pyridin-5(4H)-yl)methyl)thiazole] | < 0.5
O=C(c1cnc(-c2ccccn2)s1)N1CCc2[nH]cnc2[C@@H]1c1nc2ccccc2s1 [Example 1206, (R)-(4-(benzo[d]thiazol-2-yl)-6,7-dihydro-1H-imidazo[4,5-c]pyridin-5(4H)-yl)(2-(pyridin-2-yl)thiazol-5-yl)methanone] | 1 to 5
Cn1nc(Cl)cc1C(=O)N1CCc2[nH]cnc2[C@@H]1c1nc2c(F)cccc2s1 [Example 1722, (R)-(3-chloro-1-methyl-1H-pyrazol-5-yl)(4-(4-fluorobenzo[d]thiazol-2-yl)-6,7-dihydro-1H-imidazo[4,5-c]pyridin-5(4H)-yl)methanone] | 1 to 5
O=C(c1nccs1)N1CCc2[nH]cnc2[C@@H]1c1nc2cccc(Br)c2s1 [Example 1199, (R)-(4-(7-bromobenzo[d]thiazol-2-yl)-6,7-dihydro-1H-imidazo[4,5-c]pyridin-5(4H)-yl)(thiazol-2-yl)methanone] | 1 to 5
CC(C)(C)CC(=O)N1CCc2[nH]cnc2[C@H]1c1nc2ccccc2[nH]1 [Example 930, (S)-1-(4-(1H-benzo[d]imidazol-2-yl)-6,7-dihydro-1H-imidazo[4,5-c]pyridin-5(4H)-yl)-3,3-dimethylbutan-1-one] | < 0.5
O=C(c1cnn2ccc(F)cc12)N1CCc2[nH]cnc2[C@H]1c1nc2c(F)cccc2s1 [Example 1170, (S)-(4-(4-fluorobenzo[d]thiazol-2-yl)-6,7-dihydro-1H-imidazo[4,5-c]pyridin-5(4H)-yl)(5-fluoropyrazolo[1,5-a]pyridin-3-yl)methanone] | 0.5 to 1
CC(C)(O)c1nc(C(F)(F)F)c(C(=O)N2CCc3[nH]cnc3[C@@H]2c2nc3ccccc3s2)o1 [Example 1554, (R)-(4-(benzo[d]thiazol-2-yl)-6,7-dihydro-1H-imidazo[4,5-c]pyridin-5(4H)-yl)(2-(2-hydroxypropan-2-yl)-4-(trifluoromethyl)oxazol-5-yl)methanone] | < 0.5
O=C(c1cnn2ccccc12)N1CCc2[nH]cnc2[C@H]1c1nc2c(Br)cccc2s1 [Example 1241, (S)-(4-(4-bromobenzo[d]thiazol-2-yl)-6,7-dihydro-1H-imidazo[4,5-c]pyridine-5(4H)-yl)(pyrazolo [1,5-a]pyridin-3-yl)methanone] | 0.5 to 1
O=C(c1oc(C2(O)CC2)nc1C(F)F)N1CCc2[nH]cnc2[C@H]1c1nc2ccccc2s1 [Example 2055] | < 0.5
(R,Z)-1-(4-(1H-benzo[d]imidazol-2-yl)-6,7-dihydro-1H-imidazo[4,5-c]pyridin-5(4H)-yl)-2-(5-(prop-1-en-1-yl)-4-vinylthiazol-2-yl)ethanone [Example 904] | > 5
CCn1cnnc1C(=O)N1CCc2[nH]cnc2[C@@H]1c1nc2c(F)cccc2s1 [Example 2043, (R)-(4-ethyl-4H-1,2,4-triazol-3-yl)(4-(4-fluorobenzo[d]thiazol-2-yl)-6,7-dihydro-1H-imidazo[4,5-c]pyridin-5(4H)-yl)methanone] | 1 to 5
O=C(c1nnc(-c2ccc(F)cc2)o1)N1CCc2[nH]cnc2[C@H]1c1nc2ccccc2s1 [Example 1369] | < 0.5

Same assay, conditions: A375 cells expressing human R408W PAH; 24 hrs with compound; 13C-Tyrosine by LC-MS; average where tested multiple times

Molecule | AC50
O=C(c1ocnc1C(F)F)N1CCc2[nH]cnc2C1c1nc2ccccc2[nH]1 (centres unmarked) | E, E

Same assay, conditions: A375 cells expressing human R408W PAH; 24 hrs with compound; 13C-Tyrosine by LC-MS; average where tested multiple times; read-out: AC50

Molecule | AC50 [µM]
O=C(c1cscn1)N1CCc2[nH]cnc2[C@H]1c1nc2ccccc2[nH]1 [(S)-(4-(1H-benzo[d]imidazol-2-yl)-1,4,6,7-tetrahydro-5H-imidazo[4,5-c]pyridin-5-yl)(thiazol-4-yl)methanone] | 1 to 5
COc1ccn2ncc(C(=O)N3CCc4[nH]cnc4C3c3nc4ccc(F)cc4s3)c2c1 (centres unmarked) | 1 to 5
O=C(c1cnn2cc(Cl)ccc12)N1CCc2nc[nH]c2C1c1nc2cc(F)ccc2s1 (centres unmarked) | 1 to 5
Cc1ncc(CC(=O)N2CCc3[nH]cnc3C2c2nc3ccccc3s2)o1 (centres unmarked) | 1 to 5
O=C(Cc1cnn2ccccc12)N1CCc2[nH]cnc2C1c1nc2ccccc2s1 (centres unmarked) | > 5
Cc1nc(C(C)(C)O)oc1C(=O)N1CC(C)c2[nH]cnc2C1c1nc2c(F)cccc2s1 (centres unmarked) | 1 to 5
COc1ccn2ncc(C(=O)N3CCc4[nH]cnc4C3c3nc4ccc(Cl)cc4[nH]3)c2c1 (centres unmarked) | > 5
COc1ccn2ncc(C(=O)N3CCc4[nH]cnc4C3c3nc4ccc(Br)cc4[nH]3)c2c1 (centres unmarked) | 1 to 5
Nc1nnc(CCC(=O)N2CCc3[nH]cnc3C2c2nc3ccccc3s2)s1 (centres unmarked) | > 5
O=C(c1cnn2ccc(Cl)cc12)N1CCc2[nH]cnc2[C@H]1c1nc2ccccc2[nH]1 [(S)-(4-(1H-benzo[d]imidazol-2-yl)-6,7-dihydro-1H-imidazo[4,5-c]pyridin-5(4H)-yl)(5-chloropyrazolo[1,5-a]pyridin-3-yl)methanone] | 1 to 5
Cn1nc(CO)cc1C(=O)N1CCc2[nH]cnc2C1c1nc2c(F)cccc2s1 (centres unmarked) | 1 to 5
O=C(CCc1nccs1)N1CCc2[nH]cnc2[C@H]1c1nc2cccc(F)c2[nH]1 (single isomer, unassigned) | 1 to 5
O=C(N1CC[C@@H](c2ccccc2)C1)N1CCc2[nH]cnc2[C@H]1c1nc2ccccc2s1 (single isomer, unassigned) | 1 to 5
Cn1ncc(C(=O)N2CCc3[nH]cnc3C2c2nc3c(F)cccc3s2)n1 (centres unmarked) | > 5
O=C(C1CC1)N1CCc2[nH]cnc2C1c1nc2ccc(F)cc2[nH]1 (centres unmarked) | > 5
O=C(c1cnn2cc(Br)ccc12)N1CCc2[nH]cnc2C1c1nc2ccc(Br)cc2[nH]1 (centres unmarked) | > 5
O=C(c1nc2ccccc2[nH]1)N1CCc2[nH]cnc2[C@H]1c1nc2ccccc2[nH]1 [(S)-(4-(1H-benzo[d]imidazol-2-yl)-1,4,6,7-tetrahydro-5H-imidazo[4,5-c]pyridin-5-yl)(1H-benzo[d]imidazol-2-yl)methanone] | 1 to 5
O=C(Cc1coc(C(F)F)n1)N1CCc2[nH]cnc2[C@H]1c1nc2ccccc2[nH]1 [(S)-1-(4-(1H-benzo[d]imidazol-2-yl)-6,7-dihydro-1H-imidazo[4,5-c]pyridin-5(4H)-yl)-2-(2-(difluoromethyl)oxazol-4-yl)ethanone] | 1 to 5
Cc1nc(-c2ccccn2)oc1C(=O)N1CC(C)c2[nH]cnc2C1c1nc2ccccc2s1 (centres unmarked) | > 5
